Activity calls are given as the source filed them.
Key:
[1] = inhibitors of firefly luciferase expression or activity, dose response, H4 neuroglioma cells, luminescence (AID 1990); format: functional, cell-based
[2] = luciferase reporter signal reduction – luminescence, H4-C neuroglioblastoma cells, dose response (AID 2458); format: functional, cell-based;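 note: H4 neuroglioblastoma cells stably carrying a luciferase reporter gene fusion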
[3] = target: T1, Luciferin 4-monooxygenase (Photinus pyralis, UniProt P08659); experiment: Counter Screen for Luciferase-based Assay Positives. [Related pubchem assays: 620, 618, 411 ]
T1 sequence (P08659 whole entry): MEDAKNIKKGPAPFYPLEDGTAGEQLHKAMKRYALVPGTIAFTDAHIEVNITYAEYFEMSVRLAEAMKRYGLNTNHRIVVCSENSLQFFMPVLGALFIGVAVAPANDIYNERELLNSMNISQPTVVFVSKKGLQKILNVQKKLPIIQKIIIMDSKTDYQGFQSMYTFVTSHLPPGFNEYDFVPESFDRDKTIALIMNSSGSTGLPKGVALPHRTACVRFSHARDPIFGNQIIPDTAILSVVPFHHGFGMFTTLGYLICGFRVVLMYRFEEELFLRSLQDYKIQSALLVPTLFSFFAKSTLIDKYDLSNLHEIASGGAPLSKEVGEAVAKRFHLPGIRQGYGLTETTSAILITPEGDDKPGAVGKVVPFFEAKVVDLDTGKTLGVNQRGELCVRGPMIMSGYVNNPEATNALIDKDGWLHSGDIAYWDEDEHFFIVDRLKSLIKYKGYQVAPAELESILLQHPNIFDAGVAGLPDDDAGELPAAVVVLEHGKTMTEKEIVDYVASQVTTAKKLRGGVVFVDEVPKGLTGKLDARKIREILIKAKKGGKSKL

HEK293 [4] = experiment: PMA/Ionomycin induced NF-kB luciferase assay in 293- NF-kB-Luc stable cells. [Related pubchem assays: 1299, 1270, 1295, 1375, 1287, 1281, 1293, 1291, 1289, 1280, 465, 1364, 1282, 1372, 1365, 1370, 1367, 1366, 1269, 1373, 1292, 1290, 1302, 1371, 1283, 1271, 1294, 1374, 1368, 1369 ]; format: functional, cell-based; conditions: Homo sapiens
[5] = target: T1, Luciferin 4-monooxygenase; experiment: In vitro luciferase assay using purified luciferase. [Related pubchem assays: 1299, 1270, 1295, 1375, 1287, 1281, 1293, 1291, 1289, 1280, 465, 1364, 1282, 1372, 1365, 1370, 1367, 1366, 1266, 1373, 1292, 1290, 1302, 1371, 1283, 1271, 1294, 1374, 1368, 1369 ]
cells = format: functional, cell-based
[6] = inhibitors of SNCA 5'UTR-driven reporter translation, confirmation, H4 neuroglioma cells, luminescence (AID 1988); format: functional, cell-based
[7] = Luminescence-based counterscreen assay for KLF5 inhibitors: dose response cell-based high throughput screening assay to identify cytotoxic compounds using the IEC-6 intestinal epithelial cell line. [Related pubchem assays: 1700 (Primary screen.), 1834 (Confirmation screen.), 1858 (Summary AID.), 1905 (Counterscreen.)]; format: functional
HT-1080 = experiment: cytotoxicity in HT1080 fibrosarcoma cells, cell-based, fluorescence readout (AID 620); format: functional; conditions: Homo sapiens
HEK293 [8] = experiment: Cytotoxicity assay in HEK293 cells. [Related pubchem assays (depositor defined):AID1266, AID1269, AID1270, AID1271, AID1280, AID1281, AID1282, AID1283, AID1287, AID1289, AID1290, AID1291, AID1292, AID1293, AID1294, AID1295, AID1299, AID1302, AID1364, AID1365, AID1366, AID1367, AID1369, AID1370, AID1371, AID1372, AID1373, AID1374, AID1375, AID1384 …; format: functional, cell-based; conditions: Homo sapiens
[9] = inhibitors of SNCA 5'UTR-driven translation, confirmation, luminescence, H4 neuroglioblastoma cells, dose confirmation (AID 2454); format: functional, cell-based;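 note: H4 neuroglioblastoma cells carrying an alpha-synuclein 5'UTR luciferase reporter; potency for inhibition of the luciferase signal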
HEK293 [10] = experiment: TNF Induced NF-kB Luciferase in 293-NF-kB-Luc Stable Cells. [Related pubchem assays: 1266, 1299, 1269, 1373, 1292, 1290, 1302, 1371, 1283, 1270, 1295, 1271, 1375, 1294, 1374, 1281, 1293, 1291, 1289, 1280, 465, 1368, 1364, 1282, 1372, 1365, 1369, 1370, 1367, 1366 ]; format: functional, cell-based; conditions: Homo sapiens
[11] = cytotoxicity in HEK-293T cells, dose response, cytotoxicity control for BCR NF-kB inhibitor project, luminescence, B-cell screen hits (AID 489021); format: functional, cell-based;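 note: HEK-293T cells carrying an NF-kB luciferase reporter; cells exposed to compound for about 14 hours before viability readout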
HEK293 [12] = experiment: inhibitors of LMP1-driven NF-kB reporter, dose response, cell-based, HEK293, luciferase, cherry-pick (AID 588343); format: functional; conditions: Homo sapiens
HEK293 [13] = experiment: cytotoxicity in HEK293T NF-kB-Luc cells, SAR follow-up, cytotoxicity control for NF-kB activator project, cell-based, resazurin fluorescence (AID 493251); format: functional; conditions: Homo sapiens
Jurkat = experiment: SAR Analysis of small molecule inhibitors of T-cell specific antigen receptor-induced NF-kB activation in a Jurkat cell line using a luminescence assay - Set 2. [Related pubchem assays (depositor defined):AID435003, AID435012, AID465]; format: functional, cell-based; conditions: Homo sapiens
HEK293 [14] = experiment: SAR Analysis of small molecule inhibitors of T-cell specific antigen receptor-induced NF-kB activation in a HEK-293T cell line using a luminescence assay - Set 2. [Related pubchem assays (depositor defined):AID435003, AID435012, AID489026]; format: functional, cell-based; conditions: Homo sapiens
[15] = inhibitors of HIV Env-driven cell fusion, dose response, cherry-pick (AID 652057); format: functional, cell-based
[16] = ZM109 Env clade C HIV-1 fusion inhibitors, dose response, HeLa effector, CEM target cells, luciferase, cherry-pick (AID 652058); format: functional, cell-based
[17] = off-target signal loss in HeLa-CEM21 co-culture – HeLa F-luc CTL cells, cherry-picked, counter-screen for HIV-1 Env fusion inhibitor project, dose response (AID 652040); format: functional, cell-based;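 note: potency for signal decrease marking cytotoxic or nonspecific inhibition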
[18] = inhibitors of clade B AD8 Env fusion, dose response, cell-based, cherry-pick (AID 652062); format: functional;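 note: luciferase signal from cell-cell fusion driven by HIV-1 clade B AD8 Env; potency is for inhibitors of fusion seen as a drop in luminescence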
[19] = target: T2, Sentrin-specific protease 8 (Homo sapiens, UniProt Q96LD8); experiment: SENP8 protease inhibitors, SAR follow-up, biochemical, luminescence (AID 504501); format: functional
T2 sequence (Q96LD8 whole entry): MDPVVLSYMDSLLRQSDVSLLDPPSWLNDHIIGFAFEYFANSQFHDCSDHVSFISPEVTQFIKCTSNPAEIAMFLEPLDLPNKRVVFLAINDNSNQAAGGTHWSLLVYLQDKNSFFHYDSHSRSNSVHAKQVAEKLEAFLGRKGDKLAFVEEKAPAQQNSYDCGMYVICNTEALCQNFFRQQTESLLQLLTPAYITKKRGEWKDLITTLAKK

Caspase-3 = target: T3, Caspase-3 (Homo sapiens, UniProt P42574); experiment: SAR Analysis of small molecule inhibitors of Sentrin-specific proteases (SENPs) using a Caspase-3 Selectivity assay. [Related pubchem assays (depositor defined):AID2540, AID2599, AID434973, AID489001]; format: functional
T3 sequence (P42574 whole entry): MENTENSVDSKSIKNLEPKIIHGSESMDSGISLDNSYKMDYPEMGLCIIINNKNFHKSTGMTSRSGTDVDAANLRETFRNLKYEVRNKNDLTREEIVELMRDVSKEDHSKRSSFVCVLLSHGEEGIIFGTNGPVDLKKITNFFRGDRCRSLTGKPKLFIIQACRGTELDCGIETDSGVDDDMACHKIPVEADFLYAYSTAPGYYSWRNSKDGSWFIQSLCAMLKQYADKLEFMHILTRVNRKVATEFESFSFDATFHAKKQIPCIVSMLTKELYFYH

[20] = target: T4, Sentrin-specific protease 6 (Homo sapiens, UniProt Q9GZR1); experiment: SAR Analysis of small molecule inhibitors of Sentrin-specific protease 6 (SENP6) using a Luminescent assay. [Related pubchem assays (depositor defined):AID2582, AID2599]; format: functional
T4 sequence (Q9GZR1 whole entry): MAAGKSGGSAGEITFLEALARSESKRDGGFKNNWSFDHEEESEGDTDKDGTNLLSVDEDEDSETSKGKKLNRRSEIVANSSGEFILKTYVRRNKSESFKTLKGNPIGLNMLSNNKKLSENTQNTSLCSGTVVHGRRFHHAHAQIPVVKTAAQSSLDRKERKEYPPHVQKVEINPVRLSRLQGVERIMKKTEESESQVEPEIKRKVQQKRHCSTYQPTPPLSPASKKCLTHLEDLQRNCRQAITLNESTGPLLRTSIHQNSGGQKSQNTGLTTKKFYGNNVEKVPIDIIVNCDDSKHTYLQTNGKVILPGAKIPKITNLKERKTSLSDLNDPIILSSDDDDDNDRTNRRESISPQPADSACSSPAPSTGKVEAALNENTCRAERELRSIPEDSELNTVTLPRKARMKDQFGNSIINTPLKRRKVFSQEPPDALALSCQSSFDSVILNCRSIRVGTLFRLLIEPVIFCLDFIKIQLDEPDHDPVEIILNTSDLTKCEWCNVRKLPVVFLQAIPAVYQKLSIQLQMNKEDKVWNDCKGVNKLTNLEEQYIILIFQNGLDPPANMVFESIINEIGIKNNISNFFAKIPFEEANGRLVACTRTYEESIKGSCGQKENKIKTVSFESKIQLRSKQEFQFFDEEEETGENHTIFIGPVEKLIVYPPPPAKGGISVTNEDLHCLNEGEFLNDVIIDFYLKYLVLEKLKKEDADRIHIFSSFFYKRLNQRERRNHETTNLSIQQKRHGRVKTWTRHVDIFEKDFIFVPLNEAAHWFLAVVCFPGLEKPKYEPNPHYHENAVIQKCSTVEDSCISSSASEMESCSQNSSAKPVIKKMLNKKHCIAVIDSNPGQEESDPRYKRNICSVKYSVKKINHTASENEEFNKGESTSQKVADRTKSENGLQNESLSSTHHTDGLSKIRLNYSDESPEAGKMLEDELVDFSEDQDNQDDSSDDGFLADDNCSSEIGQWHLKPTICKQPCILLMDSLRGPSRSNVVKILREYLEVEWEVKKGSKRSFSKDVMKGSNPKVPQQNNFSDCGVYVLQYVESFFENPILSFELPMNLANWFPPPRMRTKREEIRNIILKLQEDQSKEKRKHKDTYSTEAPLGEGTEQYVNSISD

[21] = target: T5, Sentrin-specific protease 7 (Homo sapiens, UniProt Q9BQF6); experiment: SENP7 protease inhibitors, SAR follow-up, biochemical, luminescence (AID 504497); format: functional
T5 sequence (Q9BQF6 whole entry): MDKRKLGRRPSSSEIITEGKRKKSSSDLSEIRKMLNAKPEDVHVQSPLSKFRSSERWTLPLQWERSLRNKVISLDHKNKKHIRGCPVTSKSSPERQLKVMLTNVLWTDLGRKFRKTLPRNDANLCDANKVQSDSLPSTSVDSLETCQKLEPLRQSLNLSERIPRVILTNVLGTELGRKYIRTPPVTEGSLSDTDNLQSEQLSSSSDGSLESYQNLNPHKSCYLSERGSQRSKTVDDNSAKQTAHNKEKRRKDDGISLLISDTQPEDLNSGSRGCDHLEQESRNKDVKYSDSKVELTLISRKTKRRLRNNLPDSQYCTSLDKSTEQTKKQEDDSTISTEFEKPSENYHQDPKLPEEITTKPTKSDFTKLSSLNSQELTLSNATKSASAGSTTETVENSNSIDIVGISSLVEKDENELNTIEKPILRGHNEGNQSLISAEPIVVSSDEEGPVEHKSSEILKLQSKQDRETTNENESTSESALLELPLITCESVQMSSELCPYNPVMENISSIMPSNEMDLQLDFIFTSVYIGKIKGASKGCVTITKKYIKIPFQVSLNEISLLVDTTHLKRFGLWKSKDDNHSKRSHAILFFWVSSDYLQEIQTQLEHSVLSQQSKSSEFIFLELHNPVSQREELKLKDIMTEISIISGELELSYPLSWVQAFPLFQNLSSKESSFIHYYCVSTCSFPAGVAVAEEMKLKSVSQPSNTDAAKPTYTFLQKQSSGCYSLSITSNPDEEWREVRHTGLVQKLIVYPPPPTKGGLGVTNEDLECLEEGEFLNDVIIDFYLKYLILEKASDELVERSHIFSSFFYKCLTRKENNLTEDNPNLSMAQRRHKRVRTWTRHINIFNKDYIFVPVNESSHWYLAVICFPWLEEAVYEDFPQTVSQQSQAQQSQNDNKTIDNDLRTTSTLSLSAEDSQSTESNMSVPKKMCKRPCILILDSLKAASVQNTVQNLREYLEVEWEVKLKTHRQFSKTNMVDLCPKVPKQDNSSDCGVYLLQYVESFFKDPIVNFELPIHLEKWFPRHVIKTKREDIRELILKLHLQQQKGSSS

[22] = HEp-2 cell cytotoxicity, dose response, cytotoxicity control for RSV inhibitor project, HTS (AID 2410); format: functional; conditions: human respiratory syncytial virus
[23] = target: Latent membrane protein 1 (Human herpesvirus 4 (strain B95-8), UniProt P03230); experiment: TES1-eGFP NF-kB reporter inhibition versus Tet-On dsRED, dose response, selectivity assay for LMP1 NF-kB inhibitor project, imaging, HEK293T, dual-color eGFP/dsRED, cherry-picks (AID 588398); format: functional, cell-based
Chain of Latent membrane protein 1 (P03230 whole entry): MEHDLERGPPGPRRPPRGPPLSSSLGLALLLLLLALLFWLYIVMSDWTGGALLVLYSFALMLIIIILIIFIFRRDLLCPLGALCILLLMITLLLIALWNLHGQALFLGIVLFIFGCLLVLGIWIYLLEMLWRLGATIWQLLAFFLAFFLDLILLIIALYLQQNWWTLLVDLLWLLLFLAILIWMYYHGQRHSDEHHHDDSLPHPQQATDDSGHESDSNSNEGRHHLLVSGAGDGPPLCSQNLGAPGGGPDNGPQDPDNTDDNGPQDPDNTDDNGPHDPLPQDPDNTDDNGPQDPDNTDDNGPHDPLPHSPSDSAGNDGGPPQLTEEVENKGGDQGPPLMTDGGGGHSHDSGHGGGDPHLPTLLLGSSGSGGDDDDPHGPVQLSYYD

CC(C)(C)c1ccc(-c2noc(CCC(N)=O)n2)cc1
EC50 [1]: < 0.1 µM (active) | EC50 [2]: 0.47 µM (active) | EC50 [3]: 16.5 µM (active) | EC50 (HEK293 [4]): 0.443 µM (active) | EC50 [5]: > 8 µM (not active) | EC50 (cells): 0.517 µM (active) | EC50 [6]: < 0.1 µM (active) | IC50 [7]: > 39.8 µM (not active) | EC50 (HT-1080): > 50 µM (not active) | EC50 (HEK293 [8]): 14.9 µM (inactive) | EC50 [9]: 0.203 µM (active) | EC50 (HEK293 [10]): 0.528 µM (active) | IC50 [11]: > 80 µM (inactive) | AC50 (HEK293 [12]): 0.401 µM (active) | IC50 (HEK293 [13]): > 80 µM (inactive) | IC50 (Jurkat): 0.26 µM (active) | IC50 (HEK293 [14]): 0.48 µM (active) | AC50 [15]: 0.344 µM (active) | AC50 [16]: < 0.26 µM (active) | AC50 [17]: < 0.26 µM (active) | AC50 [18]: < 0.26 µM (active)

CCc1cccc2c(C(=O)CN3C(=O)c4ccccc4S3(=O)=O)c[nH]c12
IC50 [19]: > 99 µM (inactive) | IC50 (Caspase-3): > 99 µM (inactive) | IC50 [20]: > 99 µM (inactive) | IC50 [21]: > 99 µM (inactive)

CCn1c2ccccc2c2cc(/C=N/n3cnnc3)ccc21
CC50 [22]: 18.2 µM (active) | AC50 (HEK293 [12]): 11.5 µM (active) | AC50 [23]: 4.05 µM (active)
